From PubChem BioAssay (NCI)
Values joined by “and” are separate entries in the source; they are usually repeats but may differ in a detail not shown here. Equal entries are not always repeated.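 Results reflect a 48-hour exposure of cells in 96-well plates to compound at five concentrations. Here, GI50 denotes the concentration required for 50% inhibition of growth. TGI: total growth inhibition.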

Legend:
Assay in all cases: NCI tumour cell line growth inhibition, 48 h
NCI/ADR-RES ovarian = system: NCI/ADR-RES ovarian
HCC-2998 colon = system: HCC-2998 colon
MDA-MB-435 = system: MDA-MB-435
T-47D breast = system: T-47D breast
U251 CNS = system: U251 CNS
UACC-62 melanoma = system: UACC-62 melanoma
MOLT-4 leukemia = system: MOLT-4 leukemia
SK-OV-3 ovarian = system: SK-OV-3 ovarian
DLD-1 colon = system: DLD-1 colon

Row | SMILES | GI50 (NCI/ADR-RES ovarian) | TGI (NCI/ADR-RES ovarian) | GI50 (HCC-2998 colon) | TGI (HCC-2998 colon) | GI50 (MDA-MB-435) | TGI (MDA-MB-435) | GI50 (T-47D breast) | TGI (T-47D breast) | GI50 (U251 CNS) | TGI (U251 CNS) | GI50 (UACC-62 melanoma) | TGI (UACC-62 melanoma) | GI50 (MOLT-4 leukemia) | TGI (MOLT-4 leukemia) | GI50 (SK-OV-3 ovarian) | TGI (SK-OV-3 ovarian) | TGI (DLD-1 colon)
1 | N#Cc1ccc(N2Cc3cc(Cl)ccc3OC3=C2C(=O)N(Cc2ccc(F)cc2)C3=O)cc1 | 0.85 µM | 8.58 µM | 0.973 µM | 2.89 µM | 0.607 µM | 1.44 µM | 0.502 µM | 1.18 µM | 0.672 µM | 1.68 µM | 0.537 µM | 1.13 µM | 0.291 µM | 1.26 µM | 16.2 µM | 55.7 µM | 
2 | O=C1c2ccccc2C(=O)c2c(NCCNCCO)ccc(NCCNCCO)c21 | 42.8 µM and 99.2 µM and > 100 µM | > 100 µM | 1.39 µM and 1.95 µM and 2.18 µM | 3.78 µM and 7.83 µM and 7.03 µM | 2.43 µM and 3.09 µM and 1.95 µM | 7.22 µM and 13.2 µM and 6.06 µM | 1.14 µM and 1.67 µM and 1.25 µM | 7.09 µM and 7.05 µM and 5.97 µM | 0.373 µM and 0.442 µM and 0.285 µM | 5.18 µM and 6.64 µM and 2.96 µM | 1.03 µM and 1.2 µM and 1.06 µM | 4.25 µM and 4.33 µM and 2.97 µM | 0.151 µM and 0.142 µM and 0.167 µM | 59.7 µM and 11.5 µM | 1.26 µM and 1.45 µM and 2.06 µM | 11.5 µM and 9.32 µM and 11.8 µM | 
3 | C[N+](C)(C)CC(=O)N/N=C/c1oc(-c2cccc([N+](=O)[O-])c2)c(-c2cccc([N+](=O)[O-])c2)c1[N+](=O)[O-] |  |  |  | > 100 µM |  |  |  |  |  |  |  | > 100 µM |  |  |  | > 100 µM | > 100 µM
4 | O=c1[nH]cc(CO)c(=O)[nH]1 | > 100 µM | > 100 µM | > 100 µM | > 100 µM | > 100 µM | > 100 µM | > 100 µM | > 100 µM | > 100 µM | > 100 µM | > 100 µM | > 100 µM | > 100 µM | > 100 µM | > 100 µM | > 100 µM | 
5 | O=C(N/N=C/c1ccncc1)c1ccc(C(F)(F)F)nc1Nc1cccc(C(F)(F)F)c1 | 2.67 µM | 9.22 µM | 2.15 µM | 8.94 µM | 3.66 µM | 13.7 µM | 1.78 µM | 10.5 µM | 2.47 µM | 11.4 µM | 2.57 µM | 8.54 µM | 2.53 µM | 9.1 µM | 2.13 µM | 6.67 µM | 
6 | O=Cc1c[nH]c2ccc(-c3csc4ccccc34)cc12 | 4.09 µM | > 100 µM | 15.5 µM | > 100 µM | 1.24 µM | 3.66 µM | 9.15 µM | > 100 µM | 3.64 µM | 21 µM | 3.02 µM | 34.6 µM | 3.1 µM | 19.1 µM | 5.34 µM | > 100 µM | 
7 | O=C(CCCCCNC1=CC(=O)c2ccccc2C1=O)NCCC[Te]c1ccccc1 | 0.425 µM | 4.62 µM | 0.798 µM | 2.44 µM | 1.92 µM | 4.67 µM | 0.676 µM | 2.59 µM | 0.356 µM | 1.87 µM | 1.32 µM | 3.37 µM | 0.258 µM | 0.746 µM | 0.487 µM | 1.85 µM | 
8 | COc1ccc(-c2nnc(Nc3nc(O)c(C4=c5cc(OC(F)(F)F)ccc5=NC4=O)s3)o2)cc1 | 20.2 µM | 75.4 µM | 13.4 µM | 28.6 µM | 7.46 µM | > 100 µM | 69.8 µM | > 100 µM | 12.4 µM | 30.7 µM | 15.1 µM | 29.5 µM | 18.5 µM | 49.3 µM | 17.4 µM | 44 µM | 
9 | CC(=O)Nc1c(I)c(C(=O)O)c(I)c(N(C)C(C)=O)c1I | > 100 µM | > 100 µM | > 100 µM | > 100 µM | > 100 µM | > 100 µM | > 100 µM | > 100 µM | > 100 µM | > 100 µM | > 100 µM | > 100 µM | > 100 µM | > 100 µM | > 100 µM | > 100 µM | 
10 | O=C(NC1CCNCC1)c1[nH]ncc1NC(=O)c1c(Cl)cccc1Cl | > 100 µM | > 100 µM | 0.396 µM and 0.328 µM | 12 µM and > 6.08 µM | 0.37 µM and 0.335 µM | 1.72 µM and 1.58 µM | 1.18 µM and 1.01 µM | > 100 µM | 0.328 µM and 0.329 µM | > 59.7 µM | 1.33 µM and 0.479 µM | 3.18 µM and 1.89 µM | 0.357 µM and 0.329 µM | 1.49 µM and > 10 µM | 0.784 µM and 1.42 µM | > 100 µM | 
11 | Cc1cc(NS(=O)(=O)c2ccc(NC(=O)COc3ccc(-c4cc5ccccc5[nH]4)cc3)cc2)no1 | 2.64 µM | 9.37 µM | 2.07 µM | 4.94 µM | 1.38 µM | 3.13 µM | 2.75 µM | 8.56 µM | 1.86 µM | 6.74 µM | 1.53 µM | 3.26 µM | 2.05 µM | 9.72 µM | 1.85 µM | 3.55 µM | 
12 | Cc1ccc2nc3sc(=O)sc3nc2c1 |  | 30.9 µM |  | 30.2 µM |  | 29.8 µM |  | > 100 µM |  | 30.8 µM |  | 32.5 µM |  | 50.1 µM |  | 34.6 µM | 
13 | O=C1c2ccccc2-c2c1c1c(O)cccc1n2CCCc1ccccc1 | 4.47 µM | 51.1 µM | 2.35 µM | 6.01 µM | 16.7 µM | > 100 µM | 13 µM | > 100 µM | 26.4 µM | > 100 µM | 22.7 µM | > 100 µM | 30.4 µM | > 100 µM | 84.3 µM | > 100 µM | 
14 | COc1cccc(C(C#N)NC23CC4CC(CC(C4)C2)C3)c1 (stereo not drawn) |  | > 100 µM |  | > 100 µM |  | > 100 µM |  | > 100 µM |  | > 100 µM |  | > 100 µM |  | > 100 µM |  | > 100 µM | 
15 | COc1ccc(Oc2nc(Nc3ccc(N4CCOCC4)cc3)ncc2NC(=O)Nc2cc(OC)cc(OC)c2)cc1 | > 33.3 µM | > 33.3 µM | 2.11 µM | 7.16 µM | 2.33 µM | 17.1 µM | 5.13 µM | > 33.3 µM | 1.38 µM | 5.88 µM | 1.99 µM | 7.41 µM | 10.6 µM | > 33.3 µM | 7.86 µM | 25.6 µM | 
16 | Cc1ccc(C2NC(=S)N3C(c4ccc(C)cc4)NC(=S)N23)cc1 (stereo not drawn) | 2.33 µM | 6.19 µM | 4.51 µM | 17.4 µM | 0.666 µM | 4.14 µM | 5.24 µM | 19.6 µM | 3.91 µM | 14.3 µM | 1.88 µM | 11.7 µM | 5.82 µM | 18.9 µM | 4.77 µM | 15.5 µM | 
